Data from patent publication US10493125B2 (Merck Sharp & Dohme Corp., priority 2015, dated 2019).
Where two headings read alike, the source gives them in different places. Starred links: 1 amine or outer side, 2 acyl side, 3 side chain; linkers in the order of their positions; H or OH if unused. Non-standard residues stand in square brackets, D forms with d. Residues, ends and D or L forms follow the SMILES beside them. Groups on a side chain read outwards from the residue. *: point of attachment. γGlu = O=C(O)[C@H](CCC(=O)[*:2])N[*:1]; Palmitoyl = CCCCCCCCCCCCCCCC(=O)*

Assays:
human GCGR = target: T1, human GCGR (Homo sapiens, UniProt P47871); test: cAMP activity assay (HitHunter cAMP XS), cells expressing human GCGR; format: cell-based; details: for EC50: read-out: EC50 hGCGR
T1 construct: expressed in transfected cells
T1 sequence (P47871 26-477): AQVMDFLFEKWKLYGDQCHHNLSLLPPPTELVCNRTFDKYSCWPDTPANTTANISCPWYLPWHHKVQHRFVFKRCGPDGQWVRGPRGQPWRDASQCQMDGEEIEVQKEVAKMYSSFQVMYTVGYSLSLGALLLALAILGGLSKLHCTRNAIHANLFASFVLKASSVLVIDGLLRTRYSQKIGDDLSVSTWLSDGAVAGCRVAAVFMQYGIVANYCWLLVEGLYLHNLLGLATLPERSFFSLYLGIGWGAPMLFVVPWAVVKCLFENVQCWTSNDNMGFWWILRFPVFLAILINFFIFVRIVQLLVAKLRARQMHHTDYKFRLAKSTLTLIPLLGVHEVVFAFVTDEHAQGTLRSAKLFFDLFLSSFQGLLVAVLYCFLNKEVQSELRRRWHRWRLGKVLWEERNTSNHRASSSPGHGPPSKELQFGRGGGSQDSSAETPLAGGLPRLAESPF
Procedure: (§1) Peptides were dissolved in 100% DMSO and serially diluted to generate 10 point titrations. The peptide solutions were then transferred into 384-well assay plates (150 nL/well). Assay ready frozen cells expressing human GLP1R or human GCGR were suspended in growth media consisting of DMEM medium (GIBCO), 10% FBS (GIBCO), 1×NEAA(GIBCO), 1× P/S (GIBCO), 10 ug/ml Blasticidin (GIBCO) and 200 μg/mL Hygromycin (GIBCO). […] The cell suspensions (15 μL) were then added to the assay plates containing the peptide solutions (30,000 cells/well for human GCGR; 10,000 cells/well for human GLP1R). The cells were incubated for 1 hour at room temperature in the dark. Production of cAMP was determined using HitHunter™ cAMPXS kits (DiscoverX) following manufacturer protocol. The plates were incubated for overnight at room temperature in the dark. Luminescence was measured using an EnVision Multilabel plate reader (Perkin Elmer). […] EC50 values were calculated using uses a 4 parameter logistic fit based on the Levenberg-Marquardt algorithm.

human GLP1R = target: T2, human GLP1R (Homo sapiens, UniProt P43220); test: cAMP activity assay (HitHunter cAMP XS), cells expressing human GLP1R; format: cell-based
T2 construct: expressed in transfected cells
T2 sequence (P43220 24-463): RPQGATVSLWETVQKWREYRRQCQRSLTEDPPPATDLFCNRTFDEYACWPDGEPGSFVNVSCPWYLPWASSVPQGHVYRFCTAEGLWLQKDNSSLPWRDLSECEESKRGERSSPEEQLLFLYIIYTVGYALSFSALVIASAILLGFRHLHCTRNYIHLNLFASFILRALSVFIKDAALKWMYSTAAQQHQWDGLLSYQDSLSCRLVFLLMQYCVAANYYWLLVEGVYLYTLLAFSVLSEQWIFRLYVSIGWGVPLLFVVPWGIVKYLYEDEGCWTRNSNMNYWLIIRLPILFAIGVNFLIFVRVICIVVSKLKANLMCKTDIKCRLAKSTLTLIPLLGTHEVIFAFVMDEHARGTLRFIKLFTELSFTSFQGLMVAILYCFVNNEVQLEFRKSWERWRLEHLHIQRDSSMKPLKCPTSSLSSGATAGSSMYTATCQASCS
Procedure: as §1

[1] = Table 2, cAMP production, read-out: EC50 hGLP1R

Structure (SMILES)	EC50 (human GCGR; Table 2, cAMP production) [nM]	balance of activity at the GCG and GLP-1 receptors (human GCGR; in words, both receptors)	EC50 (human GLP1R; [1]) [nM]	Ratio (human GCGR; Table 7, EC50 hGCGR divided by EC50 hGLP1)	EC50 (human GCGR; Table 7, lipidated analogs vs parental peptides) [nM]	EC50 (human GLP1R; Table 7, lipidated analogs vs parental peptides, read-out: EC50 hGLP1) [nM]
CC(C)C[C@H](NC(=O)[C@H](Cc1ccc(O)cc1)NC(=O)[C@H](CCCCN)NC(=O)[C@H](CO)NC(=O)[C@H](Cc1ccc(O)cc1)NC(=O)[C@H](CC(=O)O)NC(=O)[C@H](CO)NC(=O)[C@@H](NC(=O)[C@H](Cc1ccccc1)NC(=O)[C@@H](NC(=O)CNC(=O)[C@H](CCC(N)=O)NC(=O)[C@H](CO)NC(=O)[C@@H](N)Cc1c[nH]cn1)[C@@H](C)O)[C@@H](C)O)C(=O)N[C@@H](CC(=O)O)C(=O)N[C@@H](Cc1c[nH]c2ccccc12)C(=O)N[C@@H](CCCNC(=N)N)C(=O)N[C@@H](CCCNC(=N)N)C(=O)N[C@@H](C)C(=O)N[C@@H](CCC(N)=O)C(=O)N[C@@H](CC(=O)O)C(=O)N[C@@H](Cc1ccccc1)C(=O)N[C@H](C(=O)N[C@@H](CCC(N)=O)C(=O)N[C@@H](Cc1c[nH]c2ccccc12)C(=O)N[C@@H](CC(C)C)C(=O)N[C@@H](CCC(N)=O)C(=O)N[C@@H](CC(N)=O)C(=O)N[C@H](C(N)=O)[C@@H](C)O)C(C)C [PD44]	0.02	relatively balanced potent activity at the GCG and GLP-1 receptors	0.01			
CC[C@H](C)[C@H](NC(=O)[C@H](CC(C)C)NC(=O)[C@H](Cc1c[nH]c2ccccc12)NC(=O)[C@H](CCC(N)=O)NC(=O)[C@@H](NC(=O)[C@H](Cc1ccccc1)NC(=O)[C@H](CC(=O)O)NC(=O)[C@H](CCC(N)=O)NC(=O)[C@H](C)NC(=O)[C@H](CCCNC(=N)N)NC(=O)[C@H](CCCNC(=N)N)NC(=O)[C@H](CO)NC(=O)[C@H](CC(=O)O)NC(=O)[C@H](CC(C)C)NC(=O)[C@H](Cc1ccc(O)cc1)NC(=O)[C@H](CCCCN)NC(=O)[C@H](CO)NC(=O)[C@H](Cc1ccc(O)cc1)NC(=O)[C@H](CC(=O)O)NC(=O)[C@H](CO)NC(=O)[C@@H](NC(=O)[C@H](Cc1ccccc1)NC(=O)[C@@H](NC(=O)CNC(=O)[C@H](CCC(N)=O)NC(=O)[C@H](CO)NC(=O)[C@@H](N)Cc1c[nH]cn1)[C@@H](C)O)[C@@H](C)O)C(C)C)C(=O)N[C@@H](CC(N)=O)C(=O)N[C@@H](Cc1ccc(O)cc1)C(N)=O [PD31]	0.06		0.04			
CCCCCCCCCCCCCCCC(=O)N[C@@H](CCC(=O)N[C@@H](CCC(=O)NCCCC[C@H](NC(=O)[C@H](CC(=O)O)NC(=O)[C@H](CO)NC(=O)[C@@H](NC(=O)[C@H](Cc1ccccc1)NC(=O)[C@@H](NC(=O)CNC(=O)[C@H](CCC(N)=O)NC(=O)[C@@H](CO)NC(=O)[C@@H](N)Cc1c[nH]cn1)[C@@H](C)O)[C@@H](C)O)C(=O)N[C@@H](CO)C(=O)N[C@@H](CCCCN)C(=O)N[C@@H](Cc1ccc(O)cc1)C(=O)N[C@@H](CC(C)C)C(=O)N[C@@H](CC(=O)O)C(=O)N[C@@H](CC(N)=O)C(=O)N[C@@H](CCCCN)C(=O)N[C@@H](CCCNC(=N)N)C(=O)N[C@@H](C)C(=O)N[C@@H](CCC(N)=O)C(=O)N[C@@H](CC(=O)O)C(=O)N[C@@H](Cc1ccccc1)C(=O)N[C@H](C(=O)N[C@@H](CCC(N)=O)C(=O)N[C@@H](Cc1c[nH]c2ccccc12)C(=O)N[C@@H](CC(C)C)C(=O)N[C@@H](CCSC)C(=O)N[C@@H](CCC(N)=O)C(=O)N[C@H](C(N)=O)[C@@H](C)O)C(C)C)C(=O)O)C(=O)O [TP534] (H-H[dS]QGTFTSDK([γGlu-γGlu-Palmitoyl])SKYLDNKRAQDFVQWLMQT-NH2; N-terminus assumed)				0.5	0.01	0.02
